Legend:
[1] = Dynamic light scattering (DLS) of mRNA/peptoid formulations: particle size and polydispersity; assay type: physicochemical; details: Fluc mRNA/peptoid formulation; for Size PDI: size polydispersity index by DLS, 5:1 mass ratio; for Size (nm): volume average particle size/diameter by DLS, 5:1 mass ratio peptoid:cargo
How it was run: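 Volume-average particle diameter (nm) and PDI were measured by dynamic light scattering. Formulations combined peptoid diluted in ethanol with Fluc mRNA in pH 5.5 PBS at 1:3 by volume, mixed by pipetting at 5:1 peptoid:mRNA by mass.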

[2] = mRNA encapsulation by fluorescence of Qubit RNA HS dye before and after lysis with Triton X-100; assay type: physicochemical; details: percentage of mRNA encapsulation; Fluc mRNA/peptoid formulation, 5:1 mass ratio
How it was run: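 Encapsulation was measured by comparing Qubit RNA HS fluorescence of intact particles with that after Triton X-100 lysis. Particles were amino-lipidated cationic peptoids complexed with firefly luciferase mRNA at 5:1 peptoid:cargo by mass, mixed by pipetting.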

HeLa cells [3] = assay: In vitro expression of firefly luciferase (Fluc) after treatment with Fluc mRNA/amino lipidated peptoid formulations, no PEG or 2% DMG-PEG2000; assay type: cell-based
How it was run: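 HeLa cells received 100 ng/well Fluc mRNA complexed with amino lipidated peptoid at 5:1 peptoid:mRNA (w/w), either peptoid alone or with 2% w/w DMG-PEG2000. Expression quantified as RLU by luminescence at 6 and 24 h.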

HeLa cells [4] = assay: In vitro Fluc expression with variable peptoid:mRNA mass ratio, 2% DMG-PEG2000; assay type: cell-based; details: 24 h; for Observed Luciferase Expression (RLU) for Given Formulation Mass Ratio 2:1: 2% (w/w) DMG-PEG2000, peptoid:mRNA 2:1; for Observed Luciferase Expression (RLU) for Given Formulation Mass Ratio 3.5:1: 2% (w/w) DMG-PEG2000, peptoid:mRNA 3.5:1; for Observed Luciferase Expression (RLU) for Given Formulation Mass Ratio 5:1: 2% (w/w) DMG-PEG2000, peptoid:mRNA 5:1; for Observed Luciferase Expression (RLU) for Given Formulation Mass Ratio 7.5:1: 2% (w/w) DMG-PEG2000, peptoid:mRNA 7.5:1
How it was run: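 HeLa cells exposed 24 hours to amino lipidated peptoid/Fluc mRNA formulations containing 2% w/w DMG-PEG2000 (relative to peptoid), across peptoid:mRNA mass ratios of 2:1 to 7.5:1. Read-out: average luciferase bioluminescence (RLU).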

[5] = MTT viability assay after treatment with Fluc mRNA/amino lipidated peptoid formulations; assay type: cell-based; details: human, HeLa cells
How it was run: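 Viability relative to untreated cells came from the formazan read-out after 2 h with 1.5 mg/mL MTT and acidic isopropanol/Triton lysis. The MTT step followed an 8 h exposure to 100 ng/well Fluc mRNA in 5:1 peptoid:mRNA, 2% DMG-PEG2000 formulations and a further 48 h of culture.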

Balb/c mice [6] = assay: In vivo whole-body expression of Fluc following IV administration; details: Balb/c mice (n=3), IV tail-vein, 0.5 mg/kg, 5:1 peptoid:mRNA, 2% w/w DMG-PEG2000, 8 hours
Description: (§1) Amino lipidated peptoid delivery vehicles are effective for in vivo administration of Fluc mRNA to Balb/c mice (n=3) through multiple routes of administration. Briefly, representative amino lipidated peptoid/Fluc formulations (prepared at a 5:1 mass ratio of amino lipidated peptoid:mRNA unless noted, with 2% w/w DMG-PEG2000) were administered at a dose of 0.5 mg/kg via a tail-vein injection, and the resulting bioluminescence was quantified after 8 hours.

Balb/c mice [7] = assay: In vivo organ-specific bioluminescence (biodistribution of Fluc) following IV administration; details: for Total Flux (p/s) Liver: dissected liver; for Total Flux (p/s) Lung: dissected lung; for Total Flux (p/s) Spleen: dissected spleen
Description: as §1, with “hours. […] Organ-specific bioluminescence was quantified by sacrificing the treated animal, dissecting out the organs of interest, and separately quantifying the resulting bioluminescence. […] FIG. 7C depicts a bar chart quantifying the organ-specific biodistribution of the formulations as a function of total photon flux.” for “hours.”

Balb/c mice [8] = assay: In vivo expression of Fluc following subcutaneous or intramuscular administration; details: for Total Flux (photons/sec) I.M. (0.05 mpk): mRNA 0.05 mpk; for Total Flux (photons/sec) S.C. (0.1 mpk): subcutaneous, mRNA 0.1 mpk
Description: In addition to IV administration, amino lipidated peptoids are also effective for local administration of mRNA through subcutaneous (S.C.) or intramuscular (I.M.) routes of administration. […] For these examples, mRNA was administered at a dose of 0.1 milligrams/kilogram (mpk) for subcutaneous or 0.05 mpk for intramuscular. In these cases, the overall expression was higher following intramuscular injections. […] Additional experiments were carried out to assess any variability in biodistribution as a function of the loading mass ratio of amino lipidated peptoid to the Fluc mRNA. FIG. 8A depicts a plot of total photon flux for formulations of amino lipidated peptoid compound 28 with 2% DMG-PEG 2000 and Fluc mRNA at different peptoid:mRNA ratios (1:1, 2:1, 5:1, 7.5:1 and 10:1).

[9] = no PEG, peptoid:Fluc mRNA 5:1 w/w, 100 ng/well, 6 h of treatment
[10] = no PEG, peptoid:Fluc mRNA 5:1 w/w, 100 ng/well, 24 h of treatment
[11] = with 2% (w/w) DMG-PEG2000, peptoid:mRNA 5:1, 6 h after treatment
[12] = with 2% (w/w) DMG-PEG2000, peptoid:mRNA 5:1, 24 h after treatment

Row | Structure (SMILES) | Size PDI [1] | Size (nm) [1] [nm] | % Encapsulation [2] [%] | Luciferase Expression (RLU) 6 h (HeLa cells [3]; [9]) [RLU] | Luciferase Expression (RLU) 24 h (HeLa cells [3]; [10]) [RLU] | Luciferase Expression (RLU) 6 h (HeLa cells [3]; [11]) [RLU] | Luciferase Expression (RLU) 24 h (HeLa cells [3]; [12]) [RLU] | Observed Luciferase Expression (RLU) for Given Formulation Mass Ratio 2:1 (HeLa cells [4]) [RLU] | Observed Luciferase Expression (RLU) for Given Formulation Mass Ratio 3.5:1 (HeLa cells [4]) [RLU] | Observed Luciferase Expression (RLU) for Given Formulation Mass Ratio 5:1 (HeLa cells [4]) [RLU] | Observed Luciferase Expression (RLU) for Given Formulation Mass Ratio 7.5:1 (HeLa cells [4]) [RLU] | viability at 8 h, 500 ng/well ([5]; Relative Viability (%) 2% PEG) [%] | viability at 8 h, 500 ng/well ([5]; Relative Viability (%) No PEG) [%] | Total Flux (photons/sec), whole body (Balb/c mice [6]) [photons/sec] | Total Flux (p/s) Liver (Balb/c mice [7]) [p/s] | Total Flux (p/s) Lung (Balb/c mice [7]) [p/s] | Total Flux (p/s) Spleen (Balb/c mice [7]) [p/s] | Total Flux (photons/sec) I.M. (0.05 mpk) (Balb/c mice [8]; intramuscular) [photons/sec] | Total Flux (photons/sec) S.C. (0.1 mpk) (Balb/c mice [8]) [photons/sec] | further results
1 | CCCCCCCCCCN(CC(N)=O)C(=O)CN(CCCCCCCCCC)C(=O)CN(CCCCCCCCCC)C(=O)CN(CCCCCCCCCC)C(=O)CN(CCc1ccccc1)C(=O)CN(CCc1ccccc1)C(=O)CN(CCCN)C(=O)CN(CCc1ccccc1)C(=O)CN(CCc1ccccc1)C(=O)CN(CCCN)C(=O)CN(CCc1ccccc1)C(=O)CN(CCc1ccccc1)C(=O)CNCCCN [Compound 28] | 0.085 | 308 | 52.0 | 9.59E+02 | 4.97E+03 | 8.33E+02 | 6.94E+02 | 1.26E+02 | 1.93E+03 | 5.75E+03 | 2.07E+04 | 92.7 | 85.4 | 2.36E+08 | 1.10E+07 | 7.08E+07 | 2.16E+08 | 7.23E+06 | 1.65E+06 | organ localization of Fluc expression (Balb/c mice [7]; organ-specific bioluminescence): preferential localization in other organs such as the spleen; expression after IM administration compared with Compound 8 (Balb/c mice [8]; intramuscular): significantly outperformed that example
2 | CCCCCCCCCCN(CC(N)=O)C(=O)CN(CCCCCCCCCC)C(=O)CN(CCc1ccccc1)C(=O)CN(CCc1ccccc1)C(=O)CN(CCN)C(=O)CN(CCc1ccccc1)C(=O)CN(CCc1ccccc1)C(=O)CNCCN [Compound 10] | 0.009 | 157 | 92.6 | 1.88E+03 | 7.01E+02 | 2.21E+02 | 2.43E+02 | 5.57E+03 | 1.23E+04 | 3.51E+04 | 3.57E+02 | 108 | 101 | 1.04E+07 | 5.85E+05 | 5.14E+06 | 2.17E+06 | 9.01E+05 | 1.40E+05 | –
3 | CCCCCCCCCCN(CC(N)=O)C(=O)CN(CCCCCCCCCC)C(=O)CN(CCc1ccccc1)C(=O)CN(CCc1ccccc1)C(=O)CN(CCN)C(=O)CN(CCc1ccccc1)C(=O)CN(CCc1ccccc1)C(=O)CN(CCN)C(=O)CN(CCc1ccccc1)C(=O)CN(CCc1ccccc1)C(=O)CNCCN [Compound 2] | 0.128 | 150 | 100.3 | 2.35E+02 | 1.35E+02 | 5.40E+01 | 1.17E+02 | 2.45E+04 | 1.80E+04 | 2.81E+04 | 1.49E+03 | 92.6 | 90.6 | 1.37E+07 | 1.40E+06 | 2.46E+07 | 3.39E+06 | 1.27E+05 | 8.31E+04 | –

Source: patent publication US20220323594A1, “LIPIDATED CATIONIC PEPTIDE-PEG COMPOSITIONS FOR NUCLEIC ACID DELIVERY” (NUTCRACKER THERAPEUTICS, INC., priority 2019, published 2022)
